From the supplement of paper PMC6045584
± gives the standard deviation of the averaged measurements.

Key:
[1] = compound: Cn1cc(C2=Nc3cc(NC(=O)C(N)C4CCCCC4)cc4c3C2=CNNC4=O)cn1; test: area under dose-response curve of surviving fraction (unscaled, Aref=0) (surviving fraction x log10(nM)); higher = more resistant; conditions: exposure time: 5 days; dose range 0.5-1000 nM
Outline: (§1)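 Each tumour cell line was screened three times in 384-well plates, receiving eight inhibitor concentrations from 0.5 to 1000 nM for five days. CellTiter-Glo luminescence gave viability, normalised to DMSO-only wells. Using the drc R package, surviving fractions were fitted with 3-parameter logistic dose-response curves, and the unscaled activity area over log10 dose (Aref = 0) was taken as the area under the curve.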

AFATINIB [2] = compound: T1, CN(C)C/C=C/C(=O)Nc1cc2c(Nc3ccc(F)c(Cl)c3)ncnc2cc1O[C@H]1CCOC1 [AFATINIB]; test: as above; conditions: exposure time: 5 days; dose range 0.5-1000 nM
Outline: as §1

TIOGUANINE [3] = compound: T2, Nc1nc2[nH]cnc2c(=S)[nH]1 [TIOGUANINE]; test: as above; conditions: exposure time: 5 days; dose range 0.5-1000 nM
Outline: as §1

CANERTINIB [4] = compound: T3, C=CC(=O)Nc1cc2c(Nc3ccc(F)c(Cl)c3)ncnc2cc1OCCCN1CCOCC1 [CANERTINIB]; test: as above; conditions: exposure time: 5 days; dose range 0.5-1000 nM
Outline: as §1

SNX-5422 [5] = compound: T4, CC1(C)CC(=O)c2c(C(F)(F)F)nn(-c3ccc(C(N)=O)c(N[C@H]4CC[C@H](OC(=O)CN)CC4)c3)c2C1 [SNX-5422]; test: as above; conditions: exposure time: 5 days; dose range 0.5-1000 nM
Outline: as §1

SAPACITABINE [6] = compound: T5, CCCCCCCCCCCCCCCC(=O)Nc1ccn([C@@H]2O[C@H](CO)[C@@H](O)[C@@H]2C#N)c(=O)n1 [SAPACITABINE]; test: as above; conditions: exposure time: 5 days; dose range 0.5-1000 nM
Outline: as §1

BI-2536 [7] = compound: T6, CC[C@@H]1C(=O)N(C)c2cnc(Nc3ccc(C(=O)NC4CCN(C)CC4)cc3OC)nc2N1C1CCCC1 [BI-2536]; test: as above; conditions: exposure time: 5 days; dose range 0.5-1000 nM
Outline: as §1

MDV3100 [8] = compound: T7, CNC(=O)c1ccc(N2C(=S)N(c3ccc(C#N)c(C(F)(F)F)c3)C(=O)C2(C)C)cc1F [MDV3100]; test: as above; conditions: exposure time: 5 days; dose range 0.5-1000 nM
Outline: as §1

[9] = compound: Cn1cc(C2=Nc3cc(NC(=O)C(N)C4CCCCC4)cc4c3C2=CNNC4=O)cn1; test: surviving fraction relative to DMSO-only wells; higher = less growth inhibition; conditions: exposure time: 5 days
Outline: (§2)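 At 250–500 cells per well in 384-well plates, log-phase tumour cell lines were seeded and, 24 hours on, exposed continuously for five days to inhibitors at 0.5, 1, 5, 10, 50, 100, 500 and 1000 nM. Viability readout was CellTiter-Glo luminescence, reported as surviving fraction normalised to the median of DMSO-only wells.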

AFATINIB [10] = compound: T1, AFATINIB; test: as above; conditions: exposure time: 5 days
Outline: as §2

TIOGUANINE [11] = compound: T2, TIOGUANINE; test: as above; conditions: exposure time: 5 days
Outline: as §2

CANERTINIB [12] = compound: T3, CANERTINIB; test: as above; conditions: exposure time: 5 days
Outline: as §2

SNX-5422 [13] = compound: T4, SNX-5422; test: as above; conditions: exposure time: 5 days
Outline: as §2

SAPACITABINE [14] = compound: T5, SAPACITABINE; test: as above; conditions: exposure time: 5 days
Outline: as §2

BI-2536 [15] = compound: T6, BI-2536; test: as above; conditions: exposure time: 5 days
Outline: as §2

MDV3100 [16] = compound: T7, MDV3100; test: as above; conditions: exposure time: 5 days
Outline: as §2

## JURKAT HAEMATOPOIETIC AND LYMPHOID TISSUE
[1]
  area under dose-response curve: 2.23
AFATINIB [2]
  area under dose-response curve: 3.13
TIOGUANINE [3]
  area under dose-response curve: 3.27
CANERTINIB [4]
  area under dose-response curve: 3.29
SNX-5422 [5]
  area under dose-response curve: 1.7
SAPACITABINE [6]
  area under dose-response curve: 1.09
BI-2536 [7]
  area under dose-response curve: 0.479
MDV3100 [8]
  area under dose-response curve: 3.49
[9]; 0.5 nM
  surviving fraction: 1.08 ± 0.016
[9]; 1 nM
  surviving fraction: 1.13 ± 0.013
[9]; 5 nM
  surviving fraction: 1.07 ± 0.021
[9]; 10 nM
  surviving fraction: 1.06 ± 0.036
[9]; 50 nM
  surviving fraction: 0.868 ± 0.019
[9]; 100 nM
  surviving fraction: 0.295 ± 0.022
[9]; 500 nM
  surviving fraction: 0.023
[9]; 1000 nM
  surviving fraction: 0.0237 ± 0.00058
AFATINIB [10]; 0.5 nM
  surviving fraction: 1.07 ± 0.017
AFATINIB [10]; 1 nM
  surviving fraction: 1.08 ± 0.025
AFATINIB [10]; 5 nM
  surviving fraction: 1.07 ± 0.025
AFATINIB [10]; 10 nM
  surviving fraction: 1.07 ± 0.02
AFATINIB [10]; 50 nM
  surviving fraction: 1.03 ± 0.098
AFATINIB [10]; 100 nM
  surviving fraction: 1.05 ± 0.023
AFATINIB [10]; 500 nM
  surviving fraction: 0.779 ± 0.014
AFATINIB [10]; 1000 nM
  surviving fraction: 0.259 ± 0.043
TIOGUANINE [11]; 0.5 nM
  surviving fraction: 1.05 ± 0.034
TIOGUANINE [11]; 1 nM
  surviving fraction: 1.07 ± 0.032
TIOGUANINE [11]; 5 nM
  surviving fraction: 1.07 ± 0.04
TIOGUANINE [11]; 10 nM
  surviving fraction: 1.043 ± 0.0097
TIOGUANINE [11]; 50 nM
  surviving fraction: 1.02 ± 0.039
TIOGUANINE [11]; 100 nM
  surviving fraction: 1.04 ± 0.018
TIOGUANINE [11]; 500 nM
  surviving fraction: 1.01 ± 0.012
TIOGUANINE [11]; 1000 nM
  surviving fraction: 0.565 ± 0.013
CANERTINIB [12]; 0.5 nM
  surviving fraction: 1.01 ± 0.025
CANERTINIB [12]; 1 nM
  surviving fraction: 0.977 ± 0.045
CANERTINIB [12]; 5 nM
  surviving fraction: 1.02 ± 0.018
CANERTINIB [12]; 10 nM
  surviving fraction: 0.952 ± 0.041
CANERTINIB [12]; 50 nM
  surviving fraction: 0.978 ± 0.03
CANERTINIB [12]; 100 nM
  surviving fraction: 0.978 ± 0.014
CANERTINIB [12]; 500 nM
  surviving fraction: 1.01 ± 0.031
CANERTINIB [12]; 1000 nM
  surviving fraction: 0.839 ± 0.043
SNX-5422 [13]; 0.5 nM
  surviving fraction: 1.06 ± 0.014
SNX-5422 [13]; 1 nM
  surviving fraction: 1.05 ± 0.02
SNX-5422 [13]; 5 nM
  surviving fraction: 0.973 ± 0.082
SNX-5422 [13]; 10 nM
  surviving fraction: 0.942 ± 0.026
SNX-5422 [13]; 50 nM
  surviving fraction: 0.094 ± 0.0027
SNX-5422 [13]; 100 nM
  surviving fraction: 0.0437 ± 0.00058
SNX-5422 [13]; 500 nM
  surviving fraction: 0.0387 ± 0.0023
SNX-5422 [13]; 1000 nM
  surviving fraction: 0.0443 ± 0.0011
SAPACITABINE [14]; 0.5 nM
  surviving fraction: 0.944 ± 0.031
SAPACITABINE [14]; 1 nM
  surviving fraction: 0.973 ± 0.03
SAPACITABINE [14]; 5 nM
  surviving fraction: 0.52 ± 0.0059
SAPACITABINE [14]; 10 nM
  surviving fraction: 0.245 ± 0.008
SAPACITABINE [14]; 50 nM
  surviving fraction: 0.078 ± 0.0036
SAPACITABINE [14]; 100 nM
  surviving fraction: 0.034 ± 0.001
SAPACITABINE [14]; 500 nM
  surviving fraction: 0.0213 ± 0.00058
SAPACITABINE [14]; 1000 nM
  surviving fraction: 0.023
BI-2536 [15]; 0.5 nM
  surviving fraction: 1.04 ± 0.022
BI-2536 [15]; 1 nM
  surviving fraction: 0.911 ± 0.015
BI-2536 [15]; 5 nM
  surviving fraction: 0.028 ± 0.001
BI-2536 [15]; 10 nM
  surviving fraction: 0.0257 ± 0.00058
BI-2536 [15]; 50 nM
  surviving fraction: 0.0297 ± 0.00058
BI-2536 [15]; 100 nM
  surviving fraction: 0.0217 ± 0.00058
BI-2536 [15]; 500 nM
  surviving fraction: 0.0177 ± 0.00058
BI-2536 [15]; 1000 nM
  surviving fraction: 0.021
MDV3100 [16]; 0.5 nM
  surviving fraction: 1.095 ± 0.0049
MDV3100 [16]; 1 nM
  surviving fraction: 1.1 ± 0.02
MDV3100 [16]; 5 nM
  surviving fraction: 1.09 ± 0.022
MDV3100 [16]; 10 nM
  surviving fraction: 1.06 ± 0.018
MDV3100 [16]; 50 nM
  surviving fraction: 1.05 ± 0.015
MDV3100 [16]; 100 nM
  surviving fraction: 1.06 ± 0.031
MDV3100 [16]; 500 nM
  surviving fraction: 1 ± 0.027
MDV3100 [16]; 1000 nM
  surviving fraction: 0.997 ± 0.039
